Laboratory results from ChEMBL document CHEMBL2203039, “Azabenzthiazole inhibitors of leukotriene A₄ hydrolase” (Bioorg Med Chem Lett, 2012).

Assays:
Mus musculus [1] = species on record: Mus musculus; assay: animal or person; format: functional; conditions: Balb/c, 3 h, route oral
[2] = target: T1, Voltage-gated inwardly rectifying potassium channel KCNH2 (Homo sapiens, UniProt Q12809); assay: Inhibition of dofetilide binding to human ERG by radioligand binding assay
Mus musculus [3] = species on record: Mus musculus; assay: animal or person; format: functional; conditions: Balb/c, Blood, 3 h, route oral
Mus musculus [4] = species on record: Mus musculus; assay: animal or person; format: functional, organism-based; conditions: Balb/c, Blood
[5] = target: T2, Leukotriene A-4 hydrolase (Homo sapiens, UniProt P09960); assay: Inhibition of human recombinant LTA4 hydrolase expressed in SF9 cells using LTA4 as substrate assessed as LTB4 production incubated for 10 mins prior to substrate addition measured after 10 to 30 mins by enzyme immunoassay; format: cell-based
T2 sequence (P09960 whole entry): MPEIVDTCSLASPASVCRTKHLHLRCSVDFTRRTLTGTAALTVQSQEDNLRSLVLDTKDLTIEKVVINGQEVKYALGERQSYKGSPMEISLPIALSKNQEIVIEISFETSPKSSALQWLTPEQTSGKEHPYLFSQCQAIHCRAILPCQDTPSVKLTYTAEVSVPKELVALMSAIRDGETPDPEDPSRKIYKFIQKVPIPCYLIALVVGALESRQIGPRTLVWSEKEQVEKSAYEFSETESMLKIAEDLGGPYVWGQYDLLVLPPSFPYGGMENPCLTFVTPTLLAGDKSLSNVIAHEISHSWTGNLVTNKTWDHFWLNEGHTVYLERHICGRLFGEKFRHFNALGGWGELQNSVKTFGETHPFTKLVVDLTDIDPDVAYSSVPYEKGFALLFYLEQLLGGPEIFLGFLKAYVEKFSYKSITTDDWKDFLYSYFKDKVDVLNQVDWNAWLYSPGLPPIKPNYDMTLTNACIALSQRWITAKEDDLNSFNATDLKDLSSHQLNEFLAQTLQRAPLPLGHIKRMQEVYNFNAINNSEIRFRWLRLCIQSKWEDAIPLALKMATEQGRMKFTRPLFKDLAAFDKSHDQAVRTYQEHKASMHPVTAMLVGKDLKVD

[6] = target: T1, Voltage-gated inwardly rectifying potassium channel KCNH2; assay: Inhibition of human ERG by patch clamp assay
[7] = Half life in rat at 2 mg/kg, iv; format: ADME, organism-based; set-up: dose 2 mg/kg, route intravenous; conditions: in vivo
[8] = Clearance in rat at 2 mg/kg, iv; format: ADME, organism-based; set-up: dose 2 mg/kg, route intravenous; conditions: in vivo
[9] = Volume of distribution at steady state in rat at 2 mg/kg, iv; format: ADME, organism-based; set-up: dose 2 mg/kg, route intravenous; conditions: in vivo, read-out: Vdss
[10] = Cmax in rat at 10 mg/kg, po; format: ADME, organism-based; set-up: dose 10 mg/kg, route oral; conditions: in vivo
[11] = Oral bioavailability in rat at 10 mg/kg; format: ADME, organism-based; conditions: in vivo

T1 sequence (Q12809 whole entry): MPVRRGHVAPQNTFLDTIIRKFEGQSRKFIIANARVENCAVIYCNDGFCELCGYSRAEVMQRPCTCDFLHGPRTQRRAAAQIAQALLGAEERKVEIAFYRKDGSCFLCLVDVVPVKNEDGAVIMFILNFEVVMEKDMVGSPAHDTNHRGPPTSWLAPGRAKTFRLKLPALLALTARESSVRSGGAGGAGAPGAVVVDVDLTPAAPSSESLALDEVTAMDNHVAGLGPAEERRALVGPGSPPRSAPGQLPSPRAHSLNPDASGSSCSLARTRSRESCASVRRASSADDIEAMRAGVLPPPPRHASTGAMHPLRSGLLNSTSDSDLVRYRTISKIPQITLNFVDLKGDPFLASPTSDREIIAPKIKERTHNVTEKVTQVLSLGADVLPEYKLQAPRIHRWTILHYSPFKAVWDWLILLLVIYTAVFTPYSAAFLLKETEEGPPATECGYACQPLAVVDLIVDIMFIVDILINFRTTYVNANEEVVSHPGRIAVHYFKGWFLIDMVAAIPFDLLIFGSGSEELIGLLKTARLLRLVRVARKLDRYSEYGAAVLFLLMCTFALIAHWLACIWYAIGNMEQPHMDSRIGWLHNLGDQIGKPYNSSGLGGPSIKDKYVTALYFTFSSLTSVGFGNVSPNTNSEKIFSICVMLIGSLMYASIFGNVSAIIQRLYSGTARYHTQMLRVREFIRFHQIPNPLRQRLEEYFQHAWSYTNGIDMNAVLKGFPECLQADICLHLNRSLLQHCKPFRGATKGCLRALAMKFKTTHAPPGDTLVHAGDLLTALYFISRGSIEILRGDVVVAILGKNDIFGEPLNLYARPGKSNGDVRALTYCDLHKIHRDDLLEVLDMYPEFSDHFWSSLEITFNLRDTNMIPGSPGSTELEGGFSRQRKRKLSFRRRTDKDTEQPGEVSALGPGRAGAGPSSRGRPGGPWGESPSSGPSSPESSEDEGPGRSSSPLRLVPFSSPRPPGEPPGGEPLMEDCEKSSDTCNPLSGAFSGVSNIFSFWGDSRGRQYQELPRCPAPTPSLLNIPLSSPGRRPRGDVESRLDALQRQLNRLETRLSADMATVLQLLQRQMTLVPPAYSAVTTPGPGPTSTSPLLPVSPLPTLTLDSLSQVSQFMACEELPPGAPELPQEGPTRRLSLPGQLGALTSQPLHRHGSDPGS

SMILES: NC(=O)C1CCN(CCc2ccc(Oc3nc4ncccc4s3)cc2)CC1
- inhibition in vivo at 30 mg/kg (Mus musculus [1]): 60%
- IC50 [2]: > 10000 nM
- inhibition in vivo at 30 mg/kg (Mus musculus [3]): 76%
- IC50 (Mus musculus [4]): 50 nM
- IC50 [5]: 11 nM

SMILES: O=C1CCCN1C1CCN(Cc2ccc(Oc3nc4ncccc4s3)cc2)CC1
- IC50 [6]: > 10000 nM
- inhibition in vivo at 30 mg/kg (Mus musculus [1]): 88%
- IC50 [2]: > 10000 nM
- inhibition in vivo at 30 mg/kg (Mus musculus [3]): 81%
- IC50 (Mus musculus [4]): 27 nM
- IC50 [5]: 6 nM

SMILES: CC(=O)N1CC2CC1CN2CCc1ccc(Oc2nc3ncccc3s2)cc1 (centres undefined)
- inhibition in vivo at 30 mg/kg (Mus musculus [1]): 68%
- inhibition in vivo at 30 mg/kg (Mus musculus [3]): 90%
- IC50 (Mus musculus [4]): 30 nM
- IC50 [5]: 14 nM

SMILES: NC(=O)C1CCN(CCOc2ccc(Oc3nc4ncccc4s3)cc2)CC1
- inhibition in vivo at 30 mg/kg (Mus musculus [1]): 71%
- IC50 [2]: > 10000 nM
- inhibition in vivo at 30 mg/kg (Mus musculus [3]): 80%
- IC50 (Mus musculus [4]): 30 nM
- IC50 [5]: 16 nM

SMILES: c1cnc2nc(Oc3ccc(CN4CCCCC4)cc3)sc2c1
- inhibition in vivo at 30 mg/kg (Mus musculus [1]): 48%
- IC50 [2]: > 10000 nM
- inhibition in vivo at 30 mg/kg (Mus musculus [3]): 67%
- IC50 (Mus musculus [4]): 14 nM
- IC50 [5]: 3 nM

SMILES: CC(=O)NC1CC2CCC(C1)N2CCOc1ccc(Oc2nc3ncccc3s2)cc1 (centres undefined)
- inhibition in vivo at 30 mg/kg (Mus musculus [1]): 74%
- inhibition in vivo at 30 mg/kg (Mus musculus [3]): 85%
- IC50 (Mus musculus [4]): 24 nM
- IC50 [5]: 4 nM

SMILES: c1cc2nc(Oc3ccc(CN4CCCCC4)cc3)sc2cn1
- IC50 (Mus musculus [4]): 723 nM
- IC50 [5]: 614 nM

SMILES: CC(=O)N1CC2CN(Cc3ccc(Oc4nc5ncccc5s4)cc3)CC2C1 (centres undefined)
- inhibition in vivo at 30 mg/kg (Mus musculus [1]): 95%
- inhibition in vivo at 30 mg/kg (Mus musculus [3]): 57%
- IC50 (Mus musculus [4]): 10 nM

SMILES: Clc1cnc2nc(Oc3ccc(CN4CCCCC4)cc3)sc2c1
- IC50 [2]: > 10000 nM
- IC50 (Mus musculus [4]): 245 nM

SMILES: O=C1CCCN1C1CCN(CCc2ccc(Oc3nc4ncccc4s3)cc2)CC1
- IC50 [6]: 2800 nM
- inhibition in vivo at 30 mg/kg (Mus musculus [1]): 75%
- inhibition in vivo at 30 mg/kg (Mus musculus [3]): 86%
- IC50 (Mus musculus [4]): 65 nM
- IC50 [5]: 14 nM

SMILES: CC(=O)N1CC2CN(CCOc3ccc(Oc4nc5ncccc5s4)cc3)CC2C1 (centres undefined)
- inhibition in vivo at 30 mg/kg (Mus musculus [1]): 86%
- IC50 [2]: > 10000 nM
- inhibition in vivo at 30 mg/kg (Mus musculus [3]): 81%
- IC50 (Mus musculus [4]): 30 nM
- IC50 [5]: 7 nM

SMILES: c1cnc2nc(Oc3ccc(CCN4CCCCC4)cc3)sc2c1
- inhibition in vivo at 30 mg/kg (Mus musculus [1]): 36%
- IC50 [2]: > 10000 nM
- inhibition in vivo at 30 mg/kg (Mus musculus [3]): 70%
- IC50 (Mus musculus [4]): 24 nM

SMILES: Cc1ccnc2nc(Oc3ccc(CN4CCCCC4)cc3)sc12
- inhibition in vivo at 30 mg/kg (Mus musculus [1]): 42%
- inhibition in vivo at 30 mg/kg (Mus musculus [3]): 12%
- IC50 (Mus musculus [4]): 82 nM

SMILES: c1cnc2nc(Oc3ccc(OCCN4CCCCC4)cc3)sc2c1
- inhibition in vivo at 30 mg/kg (Mus musculus [1]): 62%
- inhibition in vivo at 30 mg/kg (Mus musculus [3]): 65%
- IC50 (Mus musculus [4]): 18 nM
- IC50 [5]: 8 nM

SMILES: CC(=O)NC1CC2CCC(C1)N2Cc1ccc(Oc2nc3ncccc3s2)cc1 (centres undefined)
- half-life [7]: 2 h
- clearance [8]: 20 mL/min/kg
- Vd [9]: 3.5 L/kg
- inhibition in vivo at 30 mg/kg (Mus musculus [1]): 70%
- Cmax [10]: 1200 nM
- bioavailability [11]: 65%
- inhibition in vivo at 30 mg/kg (Mus musculus [3]): 81%
- IC50 (Mus musculus [4]): 20 nM
- IC50 [5]: 1 nM

SMILES: c1cc2sc(Oc3ccc(CN4CCCCC4)cc3)nc2cn1
- IC50 [5]: 1800 nM

SMILES: NC(=O)C1CCN(Cc2ccc(Oc3nc4ncccc4s3)cc2)CC1
- IC50 [6]: > 10000 nM
- inhibition in vivo at 30 mg/kg (Mus musculus [1]): 89%
- IC50 [2]: 8900 nM
- inhibition in vivo at 30 mg/kg (Mus musculus [3]): 85%
- IC50 (Mus musculus [4]): 37 nM
- IC50 [5]: 6 nM

SMILES: CC(=O)N1CC2CC1CN2Cc1ccc(Oc2nc3ncccc3s2)cc1 (centres undefined)
- IC50 [6]: > 10000 nM
- half-life [7]: 3.3 h
- clearance [8]: 7 mL/min/kg
- Vd [9]: 1.4 L/kg
- inhibition in vivo at 30 mg/kg (Mus musculus [1]): 88%
- Cmax [10]: 3300 nM
- bioavailability [11]: 125%
- IC50 [2]: > 10000 nM
- inhibition in vivo at 30 mg/kg (Mus musculus [3]): 92%
- IC50 (Mus musculus [4]): 7 nM
- IC50 [5]: 5 nM

SMILES: CC(=O)N1CC2CN(CCc3ccc(Oc4nc5ncccc5s4)cc3)CC2C1 (centres undefined)
- inhibition in vivo at 30 mg/kg (Mus musculus [1]): 79%
- IC50 [2]: > 10000 nM
- inhibition in vivo at 30 mg/kg (Mus musculus [3]): 86%
- IC50 (Mus musculus [4]): 22 nM
- IC50 [5]: 6 nM

SMILES: CC(=O)NC1CC2CCC(C1)N2CCc1ccc(Oc2nc3ncccc3s2)cc1 (centres undefined)
- inhibition in vivo at 30 mg/kg (Mus musculus [1]): 78%
- inhibition in vivo at 30 mg/kg (Mus musculus [3]): 85%
- IC50 [5]: 0.3 nM

SMILES: CC(=O)N1CC2CC1CN2CCOc1ccc(Oc2nc3ncccc3s2)cc1 (centres undefined)
- inhibition in vivo at 30 mg/kg (Mus musculus [1]): 72%
- inhibition in vivo at 30 mg/kg (Mus musculus [3]): 84%
- IC50 (Mus musculus [4]): 18 nM
- IC50 [5]: 7 nM

SMILES: O=C1CCCN1C1CCN(CCOc2ccc(Oc3nc4ncccc4s3)cc2)CC1
- IC50 [6]: 2500 nM
- inhibition in vivo at 30 mg/kg (Mus musculus [1]): 76%
- IC50 [2]: > 10000 nM
- inhibition in vivo at 30 mg/kg (Mus musculus [3]): 89%
- IC50 (Mus musculus [4]): 20 nM
- IC50 [5]: 6 nM

SMILES: NC(=O)C1CCN(Cc2ccc(Oc3nc4cccnc4s3)cc2)CC1
- IC50 (Mus musculus [4]): 2040 nM
- IC50 [5]: 733 nM
